# B1: TGFβ2: transforming growth factor beta 2, used for induction of gene expression (protein, UniProt P61812 303-414, looked up)
# Transforming growth factor …: ALDAAYCFRNVQDNCCLRPLYIDFKRDLGWKWIHEPKGYNANFCAGACPYLWSSDTQHSRVLSLYNTINPEASASPCCVSQDLEPLTILYYIGKTPKIEQLSNMIVKSCKCS
# Assays:
# [1] = test system: short-form c-Maf gene expression; experiment: QPCR analysis of short-form c-Maf gene expression in TM70A trabecular meshwork cells; type: cell-based, Human; conditions: 10^−7 M dexamethasone, c-Maf/18S normalized ratio, n=3
# Text: Human trabecular meshwork (TM) cells were derived from donor eyes (Central Florida Lions Eye and Tissue Bank, Tampa, Fla.) and cultured as previously described (Steely, et al. (1992), Invest Ophthalmol Vis Sci 33(7): 2242-50; Wilson, et al. (1993), Curr Eye Res 12(9): 783-93; Clark, et al. (1994), Invest Ophthalmol Vis Sci 35(1): 281-94.; Dickerson, et al. (1998), Exp Eye Res 66(6): 731-8; Wang, et al. (2001), Mol Vis 7: 89-94). TM cells were derived from pools of four each of either normal or glaucoma cell lines. Total RNA was isolated from TM cells from each pool using TRIZOL® reagent according to the manufacturer's instructions (Invitrogen, Carlsbad, Calif.). […]
# Measurement of short form c-Maf gene expression was performed by quantitative real-time RT-PCR (QPCR) using an ABI PRISM® 7700 Sequence Detection System (Applied Biosystems) essentially as described Shepard, et al. (2001) Invest Ophthalmol Vis Sci 42(13): 3173-81. […] The “Minor Groove Binding Non-Fluorescent Quencher” was bound to the 3′ end of the probe and is used to quench the fluorescence from 6FAM. […] Quantification of relative cDNA concentrations was done using the relative standard curve method as described in PE Biosystems User Bulletin #2, ABI PRISM® 7700 Sequence Detection System, 2001 (Applied BioSystems). […]
# [2] = test system: short-form c-Maf gene expression; experiment: QPCR analysis of short-form c-Maf gene expression in SGTM2697 glaucomatous trabecular meshwork cells; type: cell-based, Human
# Text: Human trabecular meshwork (TM) cells were derived from donor eyes (Central Florida Lions Eye and Tissue Bank, Tampa, Fla.) and cultured as previously described (Steely, et al. (1992), Invest Ophthalmol Vis Sci 33(7): 2242-50; Wilson, et al. (1993), Curr Eye Res 12(9): 783-93; Clark, et al. (1994), Invest Ophthalmol Vis Sci 35(1): 281-94.; Dickerson, et al. (1998), Exp Eye Res 66(6): 731-8; Wang, et al. (2001), Mol Vis 7: 89-94). TM cells were derived from pools of four each of either normal or glaucoma cell lines. Total RNA was isolated from TM cells from each pool using TRIZOL® reagent according to the manufacturer's instructions (Invitrogen, Carlsbad, Calif.).
# First strand cDNA was generated from 1 μg of total RNA using random hexamers and TAQMAN® Reverse Transcription reagents according to the manufacturer's instructions (Applied Biosystems, Foster City, Calif.). The 100 μl reaction was subsequently diluted 20-fold to achieve an effective cDNA concentration of 0.5 ng/μl.
# Measurement of short form c-Maf gene expression was performed by quantitative real-time RT-PCR (QPCR) using an ABI PRISM® 7700 Sequence Detection System (Applied Biosystems) essentially as described Shepard, et al. (2001) Invest Ophthalmol Vis Sci 42(13): 3173-81. Primers for short form-specific c-Maf amplification (Genbank accession #AF055376) were designed using PRIMER EXPRESS® software (Applied Biosystems). Forward and reverse primer sequences were […], SEQ ID NO:1, (nucleotides 3773-3799) and […], SEQ ID NO:2, (nucleotides 3823-3847), and the minor groove binding probe sequence was CTGCAAGCATATAATACA, SEQ ID NO:3, (nucleotides 3801-3818). 6FAM was bound to the 5′ end of the minor groove binding probe and refers to the type of fluorophore attached to the TAQMAN® probe. Other choices for the fluorophore are the JOE™ Fluorophore (Applied Biosystems) or VIC™ fluorophore (Applied Biosystems). The “Minor Groove Binding Non-Fluorescent Quencher” was bound to the 3′ end of the probe and is used to quench the fluorescence from 6FAM. […] Quantification of relative cDNA concentrations was done using the relative standard curve method as described in PE Biosystems User Bulletin #2, ABI PRISM® 7700 Sequence Detection System, 2001 (Applied BioSystems). […]
# Short form c-Maf gene expression was analyzed using the Affymetrix U133A GENECHIP® analysis described in Example 2 of a pool of glaucomatous trabecular meshwork cells designated SGTM2697. […]
# The effect of small molecule inhibition on short-form c-Maf gene expression was analyzed by QPCR analysis as described in Example 2 in glaucomatous trabecular meshwork (Passage 6) cells designated SGTM2697. […]
molecule,measurement,setting,value
C[C@@H]1C[C@H]2[C@@H]3CCC4=CC(=O)C=C[C@]4(C)[C@@]3(F)[C@@H](O)C[C@]2(C)[C@@]1(O)C(=O)CO [dexamethasone],"short form c-Maf upregulated compared to control, day one",[1]; 1 day,2.1 fold
same,"short form c-Maf upregulated compared to control, day 14",[1]; 14 days,3.2 fold
"CC(C)[C@H](CO)Nc1nc(Nc2cccc(Cl)c2)c2ncn(C(C)C)c2n1 [purvalanol A, 2-(1R-Isopropyl-2-hydroxyethylamino)-6-(3-chloroanilino)-9-isopropylpurine]",effect on TGFβ2-induced c-Maf expression,"[2]; SGTM2697 (Passage 6) cells, co-treatment with 5 ng/ml TGFβ2, 16 hours, n=6",completely abolished
same,basal c-Maf levels downregulated,"[2]; SGTM2697 (Passage 6) cells, without TGFβ2, 16 hours, n=6",2.6 fold
B1,short-form c-Maf upregulated by TGFβ2,"[2]; SGTM2697 (Passage 6) cells, 5 ng/ml TGFβ2, 16 hours, n=6",17 fold
same,short form c-Maf upregulated compared to control,"[2]; pooled SGTM2697 cells, 5 ng/ml TGFβ2, 16 hours, c-Maf/18S normalized ratio, n=3",16 fold

# Reference: patent US20050159432A1, “Short form c-Maf transcription factor antagonists for treatment of glaucoma” (Alcon, Inc., priority 2003, published 2005)
